Measured values reported in US10660884B2, “Phosphonate-chloroquine conjugates and methods using same” (University of Rochester, priority 2015, dated 2020).

Experiments:
[1] = test system: WT mouse bone marrow (BM) cells (OC precursors); assay: Osteoclastogenesis assay: OC formation on plastic, TRAP staining; format: cell-based; conditions: for Inhibition of osteoclast activity by osteoclast staining: WT mouse BM cells, images FIGS. 11-12
bone resorption = conditions: cited from earlier work; for Prevention of bone resorption in mice: literature report
[2] = literature; cited from earlier work
TRAF3 = assay: Western blot of RANKL-induced TRAF3 degradation; format: cell-based, mouse; conditions: 3 μM, 8 hrs, Western blotting
Protocol: WT mouse BM cells, cultured with M-CSF as in FIG. 6, were treated with vehicle, BTCQ, CQ or NC-BTCQ (3 μM) for 8 hrs. Cell lysates were used to test TRAF3 and actin protein levels by Western blotting.
Cultured cells were lysed with M-Per mammalian protein extraction reagent. 10-20 μg protein were loaded onto 10% SDS-PAGE gels, transferred onto polyvinylidene difluoride membranes, incubated with primary and secondary Abs, followed by exposure to ECL substrate. Signals were analyzed using a Bio-Rad imaging system.

## CCN(CCO)CCCC(C)Nc1ccnc2cc(Cl)ccc12 (stereo not shown) [HCQ, hydroxychloroquine]
[1]
  Inhibition of osteoclast activity by osteoclast staining: CQ and BTCQ are more effective at inhibiting osteoclast activity than HCQ
Bone resorption
  Prevention of bone resorption in mice: does not prevent bone resorption in mice
[2]
  Blindness, share of patients: 0.5-1%

## CCN(CC)CCCC(C)Nc1ccnc2cc(Cl)ccc12.O=P(O)(O)O.O=P(O)(O)O (stereo not shown) [CQ, 7-chloro-4-[[4-(diethylamino)-1-methylbutyl]amino] quinoline phosphate (1:2)]
[1]; BM cells on plastic, M-CSF 2 days, then RANKL plus compound 3 more days
  OC formation (OC numbers after TRAP staining): inhibited OC formation
[1]
  Inhibition of osteoclast activity by osteoclast staining: more effective at inhibiting osteoclast activity than HCQ
[1]; on plastic, FIG. 2A
  Concentration at which OC formation was inhibited (BTCQ more effective than CQ): 3 µM
TRAF3
  Prevention of RANKL-induced degradation of TRAF3: unlike CQ and BTCQ, NC-BTCQ does not prevent RANKL-induced degradation of TRAF3
Bone resorption; Xiu Y et al., 2014
  Dose that effectively blocks PTH-induced marrow fibrosis: 50 mg/kg
Bone resorption
  Prevention of bone resorption in mice: prevents bone resorption and osteoporosis

## CCN(CC)CCCC(C)N(C(=O)OCCCCCCCC(=O)NC(P(=O)(O)O)P(=O)(O)O)c1ccnc2cc(Cl)ccc12 (racemic) [UR-11, rac-(13-(7-chloroquinolin-4-yl)-18-ethyl-14-methyl-3,12-dioxo-11-oxa-2,13,18-triazaicosane-1,1-diyl)diphosphonic acid]
[1]
  Inhibition of osteoclast activity by osteoclast staining: more effective at inhibiting osteoclast activity than the non cleavable amide UR-12
